Where two headings read alike, the source gives them in different places.
Test system: M. tuberculosis H37Rv-GFP
Assay: microbe, parasite or virus in culture
Type: cell-based, Mycobacterium tuberculosis
Settings: Mycobacterium tuberculosis, H37RV, Macrophage
[1] = read-out: Primary QIM % Inhibition
[2] = read-out: QIM Confirm % Inhibition 20 uM
[3] = confirmation, 20 uM, intracellular, read-out: QIM Confirm % Inhibition 20 uM
[4] = primary screen, 20 μM, intracellular, read-out: Primary QIM % Inhibition

SMILES	inhibition at 20 µM [1] [%]	inhibition at 20 µM [2] [%]	inhibition at 20 µM [3] [%]	inhibition at 20 µM [4] [%]
O=[N+]([O-])c1cc(-c2nnc(-c3ccccc3)o2)cc([N+](=O)[O-])c1 [IPK 000 150 85]	72.3	72.2		
CC(=O)OC(OC(C)=O)c1ccc([N+](=O)[O-])s1 [IPK 000 155 36]			74	67.8
COc1cc(/C=N/NC(=O)c2ccncc2)cc(Br)c1OCc1ccccc1Cl [IPK 000 157 51]			46.2	96
C/C(=N\NC(=O)COc1cccc(Br)c1)c1ccccn1 [IPK 000 157 55]			19.9	22
NNC(=O)CSc1nc2ccccc2s1 [IPK 000 160 45]			70.7	66
O=C(c1ccc([N+](=O)[O-])o1)N1CCCc2ccccc21 [IPK 000 161 32]			17.8	-37.9
CCC(=O)Nc1ccc(-c2csc(N/N=C/c3ccc(SC)cc3)n2)cc1 [IPK 000 163 27]			17.9	69.5
CCCC(=O)Nc1ccc(-c2csc(N/N=C/c3ccc(SC)cc3)n2)cc1 [IPK 000 163 51]			50	89.4
COc1ccc(/C=N/Nc2nc(-c3ccc(NC(C)=O)cc3)cs2)cc1 [IPK 000 163 52]			70.7	86.2
COc1ccc(/C=N/Nc2nc(-c3ccccc3)cs2)cc1 [IPK 000 163 62]			107	81.3
CC/C(=N/Nc1nc(-c2ccc(NC(C)=O)cc2)cs1)c1ccccc1 [IPK 000 163 64]			74.2	74.9
CSc1ccc(/C=N/Nc2nc(-c3ccc(NC(C)=O)cc3)cs2)cc1 [IPK 000 163 67]			99.5	68.1
Cc1cc(C)nc(NC(=N)Nc2ccc(OCc3ccc(Cl)cc3)cc2)n1 [IPK 000 163 93]			89.9	66.7
O=[N+]([O-])c1ccc(O)c(-c2cc(C(F)(F)C(F)F)[nH]n2)c1 [IPK 000 164 52]			80	64.7
Cc1c(Cl)cccc1/N=C/c1ccc([N+](=O)[O-])o1 [IPK 000 167 54]			16.5	19.5
ON=C(/C=C/c1ccccc1)/C=C/c1ccccc1 [IPK 000 168 10]			65.6	38
CC1=NN(C(N)=S)C(=O)/C1=N/Nc1ccc(C)cc1 [IPK 000 168 31]			78.1	83.9
CC1=NN(C(N)=S)C(=O)/C1=N/Nc1ccccc1C [IPK 000 168 32]			81.9	75.7
Cc1ccccc1C(=O)NNC(=O)c1cc([N+](=O)[O-])cc([N+](=O)[O-])c1 [IPK 000 169 30]	56.2	73.7		
O=C(Nc1ccc(Br)c(Cl)c1)c1cccs1 [IPK 000 169 42]			76.9	-64
O=[N+]([O-])c1ccc(Cl)c(/C=N/c2ccccc2O)c1 [IPK 000 169 68]			-5.3	-5
O=[N+]([O-])c1ccc(/C=N/c2ccccc2O)s1 [IPK 000 169 76]			16.7	-71.9
Oc1ccccc1/N=C/c1ccc(OCc2ccccc2)cc1 [IPK 000 169 86]			13	0.5

SMILES	inhibition at 20 µM [1] [%]	inhibition at 20 µM [2] [%]	inhibition at 20 µM [3] [%]	inhibition at 20 µM [4] [%]
CSc1ccc(/C=N/c2ccccc2O)cc1 [IPK 000 169 96]			14.7	-50.2
O=C(N/N=C/c1c(Cl)cccc1Cl)c1ccncc1 [IPK 000 170 33]			96.3	49.5
CCOc1ccc(NN=C(C#N)C#N)cc1 [IPK 000 170 72]	-29.5	-21.3		
COc1cccc(C(O)c2cccs2)c1 (stereo not drawn) [IPK 000 171 27]			95.2	95.2
O=[N+]([O-])c1ccc(NNc2ccccc2)c([N+](=O)[O-])c1 [IPK 000 171 46]	24.3	72.1		
CC1=NN(C(N)=S)C(=O)/C1=N/Nc1ccc(O)cc1 [IPK 000 171 84]			13.3	-79.6
CCOc1ccc(C(=O)/C=C/c2ccccc2F)cc1 [IPK 000 172 34]			12.5	-82.4
O=C(/C=C/c1ccccc1F)c1ccc(Cl)cc1 [IPK 000 172 35]			59.9	0.9
CCOc1ccc(NCCCCO)cc1 [IPK 000 172 54]			40.4	4.1
C/C(=N\NC(=S)Nc1cccc(C)c1)c1ccccc1O [IPK 000 173 06]			15.8	44
C/C(=N\NC(=S)Nc1cccc(C)c1)c1ccco1 [IPK 000 173 45]			19.2	14.9
NC(=O)c1ccccc1/N=C/c1ccc([N+](=O)[O-])o1 [IPK 000 175 27]			25.8	-69.7
O=[N+]([O-])c1ccc(/C=N/c2ccc(Cl)c([N+](=O)[O-])c2)o1 [IPK 000 178 24]	-26.4	-4.1		
Cc1ccsc1/C=C/c1ccccc1O [IPK 000 179 05]			16.6	-31.7
CC1=NN(c2ccc([N+](=O)[O-])cc2)C(=O)/C1=N/Nc1c(Cl)cc([N+](=O)[O-])cc1Cl [IPK 000 179 49]	65.7	78.5		
C/C(=N/NC(=O)c1cc2ccccc2cc1O)c1ccc(O)cc1 [IPK 000 180 11]			69.7	68.2
O=C(Nc1ccc(Cl)c(Cl)c1)c1ccc(Cn2cc(Cl)cn2)cc1 [IPK 000 180 16]			69.8	46.1
O=C(Nc1ccc(Cl)c(Cl)c1)c1ccc(Cn2cc(Br)cn2)cc1 [IPK 000 180 17]			34.5	63.2
OC1CCCc2c1[nH]c1ccc(Br)cc21 (stereo not drawn) [IPK 000 180 76]			92.1	70.6
O=C(NCCC1=CCCCC1)c1ccc(Br)o1 [IPK 000 184 56]			72.7	85.1
Cc1cc(OCC(=O)NN)ccc1Br [IPK 000 192 59]			81.1	65.3
Cc1ccoc1/C=N/NC(=O)c1ccncc1 [IPK 000 193 76]			97.4	81.4
CCN(CC)c1ccc(/C=N/NC(=O)c2ccncc2)cc1 [IPK 000 195 99]			69.5	79.1

SMILES	inhibition at 20 µM [1] [%]	inhibition at 20 µM [2] [%]	inhibition at 20 µM [3] [%]	inhibition at 20 µM [4] [%]
COc1ccc(/C=C2\c3ccccc3-c3ccc(C(=O)CCCCN4CCCCC4)cc32)cc1OC [IPK 000 198 54]			77.9	38.6
COc1ccc(/C=C2/c3ccccc3-c3ccc(C(=O)CCCCN4CCCCC4)cc32)cc1 [IPK 000 198 56]			64.7	15.1
O=C(Nc1ccc(NC(=O)c2cccnc2)cc1)C1=CCCS1 [IPK 000 199 70]			69.6	70.5
O=C(CSc1ccc(Nc2ccc(Cl)cc2)nn1)Nc1ccc(Cl)cc1 [IPK 000 200 16]			76.8	73.3
Cc1ccc(C)n1-c1ccc(C(=O)O)c(O)c1 [IPK 000 200 47]			19.1	6.3
O=C(Nc1cccc(C(F)(F)F)c1)c1cccs1 [IPK 000 202 08]			67.4	65.7
Cc1ccc(NC(=O)c2ccc(F)cc2)cc1Cl [IPK 000 205 22]			69.7	85.1
Cc1ccc(CNC(=O)c2ccc(F)cc2)cc1 [IPK 000 205 42]			69.3	71.5
CCCCNC(=O)c1ccc2c(c1)OCO2 [IPK 000 208 53]			23.3	71.6
Cc1cccc(C(=O)NCCC(C)C)c1 [IPK 000 210 74]			20.2	76.4
CC(C)CCNC(=O)c1cccc(Cl)c1 [IPK 000 210 79]			28.7	77.2
CCOc1ccc(C(=O)NCCC(C)C)cc1 [IPK 000 210 83]			48.2	70.4
Cc1ccc(/C=N/NC(=O)c2ccncc2)o1 [IPK 000 219 26]			51.4	91.1
O=C(N/N=C/c1ccccc1)c1ccncc1 [IPK 000 219 27]			57.4	96.9
COc1ccc(/C=N/NC(=O)c2ccncc2)cc1 [IPK 000 219 28]			46.2	106
Cc1ccsc1/C=N/NC(=O)Cc1cc(=O)[nH][nH]1 [IPK 000 219 30]			93	104
Cc1ccc(-c2c(CN3CCCCC3)c(N)nc3ccccc23)cc1 [IPK 000 222 00]			86.2	74.4
Nc1nc2ccccc2c(-c2cccc3ccccc23)c1CN1CC1 [IPK 000 222 04]			85.8	65.4
O=[N+]([O-])c1ccc(/C=N/N(CCO)C2=NS(=O)(=O)c3ccccc32)o1 [IPK 000 222 32]			63.2	16.2
CCc1ccc(NC(=O)C23CC4CC(CC(C4)C2)C3)cc1 [IPK 000 228 46]			37.8	22.5
Cc1ccc(C(=O)NCCSC2CCCCC2)cc1[N+](=O)[O-] [IPK 000 229 50]			83.6	60.1
C#C/C(=C/c1ccc(-c2ccc(N3CCCCC3)c([N+](=O)[O-])c2)o1)C(=O)OCC [IPK 000 229 72]			90.7	69.4
CC12CC3CC(C)(C1)CC(NC(=O)c1ccc(N4CCCC4)c([N+](=O)[O-])c1)(C3)C2 [IPK 000 230 02]	-7.7	40.5		

— patent US8785452B2, “Anti-infective compounds” (priority 2008, dated 2014)
